This is an account of results in patent US11633458B2, “Compositions and methods for treating melanoma” (University of Virginia Patent Foundation, priority 2013, dated 2023).

For experiment [1], the system named is melanoma cell lines VMM1, DM13, DM93 and DM122. Briefly: Intracellular staining of chemokines CCL2-5, CXCL9, CXCL12 by flow cytometry after overnight TLR agonist stimulation with or without IFNγ. The class given is cell-based, human. As to conditions: TLR agonist alone. The procedure: (§1) Stained cells were collected on the FACSCalibur instrument (BD Biosciences) and analyzed with FlowJo 8.8.6 software (TreeStar, Ashland, Oreg.). Analyses were conducted on live cells (95%) as defined by forward and side-angle scatter. Gates were set based on isotype-matched (ISO) controls or fluorescence-minus-one (FMO) controls.
(§2) These were used with or without rh-IFNγ (1000 IU/mL; PeproTech). After stimulation, cells were detached using Accutase.
(§3) Cells were fixed and permeablilized using the BD Cytofix/Cytoperm kit and then stained with the indicated antibodies. Staining antibodies: CCL2-PE, CCL3-PE, CCL4-PE, CCL5-PE, CXCL10-PE (BD Pharmingen), CXCL9-PE, CXCL12-APC (R&D Systems), IgG1-PE, and IgG2α-PE (Caltag). Flow cytometric analyses were conducted as described.
A general note: In flow cytometry, cells or beads pass a laser one at a time.

Experiment [2] concerns DM13 cells. Briefly: TLR agonist dose response assay, CXCL10 producing cells by flow cytometry, constant IFNγ. The class given is cell-based, human. The note with it: for effect on CXCL10 induction: in the presence of IFNγ, even at much higher concentrations than in prior experiments; for optimal concentration for CXCL10 production: constant concentration of IFNγ. Here is the method:
FIGS. 3A-3D. […] Melanoma cells were analyzed for induced chemokine production after overnight stimulation with the indicated TLR agonists with (+) or without (−) IFNγ. FIG. 3A-FIG. 3B (12 panels/images each). […] Scale bars represent 100 μm. FIG. 3C. Graphic illustration of ELISA assays to detect CXCL10 from supernatants of stimulated melanoma cells DM13 (left) and VMM1 (right). FIG. 3D. TLR agonist dose response assay. […] Data are from 2 independent experiments.
as §2, §3

Experiment [3] relates to melanoma cell lines VMM1, DM13, DM93 and DM122. Briefly: Intracellular CXCL10 staining by flow cytometry after overnight stimulation with TLR agonists with or without IFNγ. The class given is cell-based, human. As to conditions: averaged across the four melanoma lines, flow cytometry (FIG. 2B). The procedure: as §1, §2, §3
In experiment [4] the test system is 21 melanoma cell lines. Briefly: TLR2 and TLR6 staining by flow cytometry with or without IFNγ. As to conditions: IFNγ stimulation, data not shown. The class given is cell-based, human. Here is the method:
Melanoma cell lines were seeded into 6-well plates at 1×10^6 cells/well in RPMI and stimulated overnight in the presence or absence of recombinant human IFNγ (rh-IFNγ, 1000 IU/mL; PeproTech, Rocky Hill, N.J.). After stimulation, cells were detached using Accutase (Millipore, Billerica, Mass.), stained with indicated antibodies and fixed using Cytofix (BD Biosciences, San Jose, Calif.). Surface staining antibodies: TLR2-Alexa647, Streptavidin-PE (BD Pharmigen, San Jose, Calif.), TLR6-Biotin (eBioscience, San Diego, Calif.), TLR4-APC (R&D Systems, Minneapolis, Minn.). Intracellular staining: cells were fixed and permeabilized using the BD Cytofix/Cytoperm kit (BD Biosciences) and stained with appropriate antibodies: TLR7-CFS, IgG2α-CFS (R&D Systems), TLR3-PE, TLR9-APC (eBioscience), TLR8-Alexa488 (Dendritics, San Diego, Calif.), IgG1-PE, and IgG2α-PE (Caltag, Towcester, UK).
as §1

Experiment [5] concerns cells from freshly resected human melanoma metastases. Briefly: CXCL10 production by cells of freshly resected melanoma metastases, flow cytometry. The class given is cell-based. As to conditions: patients 1-3 (FIG. 6A). From the text: FIGS. 6A-6E. Patient melanomas generate CXCL10 in response to TLR2/6 agonist and IFNγ. […] Cell subsets were defined as: melanoma (CD45^negS100^+), endothelial (S100^negCD45^negCD105^+), B-cell (CD20^+), DC (CD11c^+HLADR^+), macrophage (CD14^+), NK-cell (CD56^+) and T-cell (CD3^+). FIG. 6A. The percent of melanoma cells that are CXCL10^+ from patient 1 (top), patient 2 (middle) and patient 3 (bottom) tumors after stimulation with the indicated conditions (left panel). MFI for CXCL10 expression of melanoma cells from patient 1 melanoma (top) and patient 2 melanoma (middle) patient 3 melanoma (bottom) (right panel). FIG. 6B-FIG. 6D. […] Graph of CXCL10 measured by ELISA assay, cells are from patient 1 tumor.
Having observed production of CCL3 and CXCL10 by cultured human melanoma cell lines in vitro, we asked whether the same would be observed with melanoma cells isolated from fresh surgically-excised human metastases. TLR2 and TLR6 are expressed on some immune cell subsets (31; 32), thus we also assessed whether TLR2/6 agonists and IFNγ may impact CXCL10 production from immune cell subsets in patient tumor specimens. […] The percentage of live cells from tumor assessed by viability marker were approximately 60%, 50%, 70%, and 40% for patients 1-4 respectively (data not shown).

Experiment [6] relates to cells from fresh surgically isolated melanoma metastases. In words: CXCL10 ELISA of supernatants of stimulated cells from fresh melanoma metastases. The class given is cell-based, human. The note with it: patient 1 tumor (FIG. 6E). The procedure:
Melanoma cell lines or cells from patient samples were stimulated with TLR agonists as described, but without GolgiStop. Media containing the cell-secreted chemokines were collected and centrifuged to remove cell debris. CXCL10 was measured using the BD OptEIA human IP-10 ELISA Set with BD OptEIA buffers (BD Biosciences).
In general terms: In an ELISA, binding on a coated surface is turned into a signal by an enzyme label.

For experiment [7], the system named is melanoma cell lines VMM1, DM13, DM93 & VMM39. In words: Gene expression profiling (gene array) of melanoma cell lines after IFNγ or TLR2/6 agonist + IFNγ. As to conditions: Vs No treatment; Anova p≤0.005, matched comparisons. The class given is cell-based, human. Here is the method:
To assess global effects of TLR2/6 agonists and IFNγ stimulation on melanoma, gene expression profiling of melanoma cell lines was performed.

The subject of experiment [8] is breast cancer cell lines. Briefly: CXCL10 production by breast cancer cell lines, flow cytometry. The class given is cell-based, human. As to conditions: n=4; printed 'LPS, PAM3CSK4, and MALP-2+IFNγ', +IFNγ may apply to all three.
Protocol: Breast cancer cells were stimulated with TLR agonists overnight alone or in combination with IFNγ (IFNγ stimulation indicated as +). CXCL10 production was assessed by flow cytometry from the indicated breast cancer cell lines (n=4).
Experiment [9] has as its system lung cancer cell lines. Briefly: CXCL10 production by lung cancer cell lines, flow cytometry. The class given is cell-based, human. As to conditions: lung cancer cell lines n=8 (FIG. 16). The procedure:
FIG. 16 (line graph): Treatment of Lung Cancer cells with TLR1/2 agonists-TLR1/2 agonists can induce some CXCL10 production from lung cancer cell lines. Lung cancer cells were stimulated with TLR agonists overnight alone or in combination with IFNγ (IFNγ stimulation indicated as +). CXCL10 production was assessed by flow cytometry from the indicated lung cancer cell lines (n=8).

As for `CC(C)Cn1cnc2c(N)nc3ccccc3c21` [imiquimod], in [1], the chemokine production result was “little chemokine production”. Further, the “effect on CXCL10 induction” value in experiment [2] is on record as “little effect”.
As to “fibroblast-stimulating lipopeptide-1 [FSL-1]”, the chemokine production result in experiment [1] is on record as “little chemokine production”. The “optimal concentration for CXCL10 production” value in [2] amounted to 5 µg/mL.
For “interferon gamma [IFNγ, recombinant human IFNγ (PeproTech), used at 1000 IU/mL]”, the “percent of cells producing CXCL10” value in experiment [3] amounted to 7%. Besides, in experiment [4], the “expression of TLR2 or TLR6” value is on record as “neither was impacted”. For the same compound, in [5], the “CXCL10 production by melanoma cells (S100+CD45neg), percentage of CXCL10+ cells and MFI” value is “produced CXCL10”. The compound further yielded a CXCL10 in supernatants in experiment [6] of roughly 400 pg/mL. In [7], the “fold change of gene induction, CXCL9” value stood at 20.7 fold change; the “fold change of gene induction, CXCL10” value came to 36.5 fold change; the “fold change of gene induction, GBP1” value turned out to be 50.6 fold change; the “fold change of gene induction, GBP4” value is recorded as 84.9 fold change. In experiment [7], the “fold change of gene induction, IFI30” value is reported as 14.4 fold change; the “fold change of gene induction, IFITM1” value is listed as 14.4 fold change; the “fold change of gene induction, IRF1” value came out at 30.2 fold change; the “fold change of gene induction, OAS2” value worked out at 24.1 fold change. Moreover, in experiment [7], the “fold change of gene induction, TNFSF10” value is listed as 25.7 fold change and the “fold change of gene induction, XAF1” value is given as 22.8 fold change.
As for poly-ICLC, the chemokine production result in [1] was “little chemokine production”. Besides, in [2], the “effect on CXCL10 induction” value is reported as “little effect”.
In the case of lipopolysaccharide [LPS], the chemokine production entry in [1] is “little chemokine production”. For the same compound, in experiment [2] (+IFNγ (FIG. 3D)), the “concentration inducing CXCL10 at levels comparable to MALP-2 or FSL-1 and IFNγ” value worked out at 100 µg/mL. The “concentration inducing comparable levels of CXCL10” value in experiment [2] (in combination with IFNγ, compared with TLR2/6 agonists) is no less than 100 µg. In addition, the “cell lines with induced CXCL10 production” value in experiment [8] was 2/4.
As to “macrophage-activating lipopeptide 2 [MALP-2]”, the chemokine production entry in experiment [1] is “little chemokine production”. Moreover, in experiment [2], the “optimal concentration for CXCL10 production” value stood at 0.1 µg/mL.
As for Pam3CysSerLys4 [Pam3CSK4], the “cell lines with induced CXCL10 production” value in [8] was 2/4. In experiment [9], the CXCL10 production result was “some CXCL10 production can be induced”.
